# Laboratory results: publication PMC9395968, “Pristimerin, a triterpene that inhibits monoacylglycerol lipase activity, prevents the development of paclitaxel-induced allodynia in mice” (Frontiers in Pharmacology, 2022)
# pIC50: −log10 of the molar value.
# What was measured:
# [1] = target: T1, mouse monoacylglycerol lipase (MAGL) (Mus musculus, UniProt O35678); test: fluorometric MAGL activity assay in paw skin supernatant (brain IC50 […]); type: biochemical
# T1 construct: gene Mgll
# T1 sequence (O35678 1-303): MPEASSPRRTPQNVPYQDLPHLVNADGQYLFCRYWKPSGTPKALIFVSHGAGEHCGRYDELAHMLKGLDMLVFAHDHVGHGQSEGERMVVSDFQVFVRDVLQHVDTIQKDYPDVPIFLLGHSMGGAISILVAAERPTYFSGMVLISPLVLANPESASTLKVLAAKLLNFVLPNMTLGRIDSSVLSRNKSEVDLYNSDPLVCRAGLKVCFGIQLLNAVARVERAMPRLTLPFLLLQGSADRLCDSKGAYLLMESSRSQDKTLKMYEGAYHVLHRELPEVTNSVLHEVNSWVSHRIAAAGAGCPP
# [2] = target: T2, human recombinant monoacylglycerol lipase (MAGL) (Homo sapiens, UniProt Q99685); test: colorimetric MAGL inhibitor screening kit (4-nitrophenyl acetate hydrolysis, […] nm); type: biochemical
# T2 construct: gene MGLL
# T2 sequence (Q99685 1-303): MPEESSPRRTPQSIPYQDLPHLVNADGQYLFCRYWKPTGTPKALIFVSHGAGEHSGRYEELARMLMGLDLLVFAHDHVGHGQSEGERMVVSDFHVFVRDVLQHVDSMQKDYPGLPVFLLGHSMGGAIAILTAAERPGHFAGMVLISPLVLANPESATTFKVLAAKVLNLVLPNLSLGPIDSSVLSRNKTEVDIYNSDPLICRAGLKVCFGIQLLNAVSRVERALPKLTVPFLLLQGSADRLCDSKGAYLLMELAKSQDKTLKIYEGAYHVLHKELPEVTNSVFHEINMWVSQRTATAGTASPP
structure (smiles),measurement,setting,value
COC(=O)[C@]1(C)CC[C@]2(C)CC[C@]3(C)C4=CC=C5C(=CC(=O)C(O)=C5C)[C@]4(C)CC[C@@]3(C)[C@@H]2C1 [pristimerin],pIC50,[1],6.22
same,pIC50,[2],6.89
